According to PMC11882969 (Nature Communications, 2025):
Values joined by “and” are separate entries in the source; they are usually repeats but may differ in a detail not shown here. Equal values may be shown once. Read-outs that look alike come from different tables or passages of the source. Marks after values point to notes of the source that are not given here.

Tests used:
CB1 (rCB1) [1] = target: T1, CB1 (rCB1) (Rattus norvegicus, UniProt P20272); assay: Single-point radioligand displacement screen; assay type: binding
T1 sequence (P20272 whole entry): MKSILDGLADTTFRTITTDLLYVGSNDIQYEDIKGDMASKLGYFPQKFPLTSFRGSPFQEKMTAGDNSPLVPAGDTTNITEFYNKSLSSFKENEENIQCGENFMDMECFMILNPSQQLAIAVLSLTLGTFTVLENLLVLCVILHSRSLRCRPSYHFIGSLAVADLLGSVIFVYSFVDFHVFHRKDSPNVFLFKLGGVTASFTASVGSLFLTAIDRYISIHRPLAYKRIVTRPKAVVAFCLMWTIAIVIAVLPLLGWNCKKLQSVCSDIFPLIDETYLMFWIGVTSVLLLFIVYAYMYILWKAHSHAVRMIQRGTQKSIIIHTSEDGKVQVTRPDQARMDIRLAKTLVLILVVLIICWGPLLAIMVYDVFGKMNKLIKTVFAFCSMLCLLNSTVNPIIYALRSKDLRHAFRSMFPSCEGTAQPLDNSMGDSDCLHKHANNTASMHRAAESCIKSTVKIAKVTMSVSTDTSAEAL

hCB1 [2] = target: T2, hCB1 (Homo sapiens, UniProt P21554); assay: Lance Ultra cAMP accumulation assay, CHO cells; assay type: cell-based; set-up: expressed in transfected cells; details: for cAMP assay signal, concentration-response point: replicates, sheet FigureS2a;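 for all read-outs here: human CB1R stably expressed in CHO cells, ligands co-incubated with forskolin at room temperature, read-out is lowering of forskolin-stimulated cAMP accumulation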
T2 sequence (P21554 whole entry): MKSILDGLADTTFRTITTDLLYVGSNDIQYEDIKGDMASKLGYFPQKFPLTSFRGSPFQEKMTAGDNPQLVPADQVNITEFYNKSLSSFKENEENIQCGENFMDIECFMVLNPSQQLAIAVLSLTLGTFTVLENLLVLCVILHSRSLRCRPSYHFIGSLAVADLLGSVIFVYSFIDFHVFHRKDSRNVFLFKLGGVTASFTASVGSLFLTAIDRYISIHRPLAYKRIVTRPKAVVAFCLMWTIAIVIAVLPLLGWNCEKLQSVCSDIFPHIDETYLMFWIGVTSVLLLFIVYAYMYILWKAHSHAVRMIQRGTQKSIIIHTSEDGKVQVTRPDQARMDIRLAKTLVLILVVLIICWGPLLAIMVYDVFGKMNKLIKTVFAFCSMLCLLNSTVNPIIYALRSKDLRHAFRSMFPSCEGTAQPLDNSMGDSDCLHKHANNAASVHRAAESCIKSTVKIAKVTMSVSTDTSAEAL

hCB1 [3] = target: T2, hCB1; assay: bioSensAll ebBRET signaling profiling, hCB1; assay type: cell-based; set-up: host or cells: HEK293SL cells, transient PEI transfection; details: for Barr2+GRK2 hCB1 response: Barr2+GRK2 biosensor; for Gi1 hCB1 / GoB hCB1: single replicate values, FigS6a; for Emax: normalized to CP-55,940
CB1 (rCB1) [4] = target: T1, CB1 (rCB1); assay: Radioligand competition binding, [3H]-CP-55,940, rat brain membranes
AmpC β-lactamase = AmpC β-lactamase (Escherichia coli, UniProt P00811); assay type: biochemical; details: Rep 1-3 mean; sheet FigureS2c
AmpC β-lactamase, sequence (P00811 20-377): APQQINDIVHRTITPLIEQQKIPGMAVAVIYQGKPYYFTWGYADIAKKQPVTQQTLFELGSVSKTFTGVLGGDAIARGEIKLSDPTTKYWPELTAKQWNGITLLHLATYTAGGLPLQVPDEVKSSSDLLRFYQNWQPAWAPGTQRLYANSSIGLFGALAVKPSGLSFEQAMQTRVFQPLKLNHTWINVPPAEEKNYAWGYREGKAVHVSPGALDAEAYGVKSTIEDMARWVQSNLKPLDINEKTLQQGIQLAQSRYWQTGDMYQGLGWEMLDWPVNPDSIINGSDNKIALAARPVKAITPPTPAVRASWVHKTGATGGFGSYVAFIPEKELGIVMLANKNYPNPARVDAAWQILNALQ
Procedure: Enzyme inhibition assays to test for colloidal inhibition were performed at room temperature using CLARIOstar Plate Reader (BMG Labtech). Samples were prepared in 50 mM KPi buffer, pH 7.0 with final DMSO concentration at 1% (v/v). Compounds were incubated with 2 nM AmpC β-lactamase (AmpC) or Malate dehydrogenase (MDH) for 5 min. AmpC reactions were initiated by the addition of 50 μM CENTA chromogenic substrate (219475, Calbiochem). […] MDH reactions were initiated by the addition of 200 μM nicotinamide adenine dinucleotide (NADH) (54839, Sigma Aldrich) and 200 μM oxaloacetic acid (324427, Sigma Aldrich). The change in absorbance was monitored at 340 nm for 60 sec. Initial rates were divided by the DMSO control rate to determine % enzyme activity. […]. Data was analyzed using GraphPad Prism 9.1.

Cn1nc(-c2nnc(C(C)(C)Oc3ccc(Cl)cc3)o2)c2ccccc2c1=O [‘0450]
% 1H-CP-55,940 displacement (mean) from single point screen (CB1 (rCB1) [1]; 10 µM, 1 µM or 300 nM by cell colour (not visible)): 80.28% | rep1_displacement (CB1 (rCB1) [1]; Figure 1c source data, replicate 1): 80.6 | rep2_displacement (CB1 (rCB1) [1]; Figure 1c source data, replicate 2): 81.2 | rep3_displacement (CB1 (rCB1) [1]; Figure 1c source data, replicate 3): 79 | cAMP assay signal, concentration-response point (hCB1 [2]; compound 0.01 nM): 0.002801 and 0.002457 and 0.003311 | cAMP assay signal, concentration-response point (hCB1 [2]; compound 0.1 nM): 0.004608* and 0.002375 and 0.002849 | cAMP assay signal, concentration-response point (hCB1 [2]; compound 1 nM): 0.002336 and 0.002132 and 0.002532 | cAMP assay signal, concentration-response point (hCB1 [2]; compound 10 nM): 0.002645 and 0.002538 and 0.002288 | cAMP assay signal, concentration-response point (hCB1 [2]; compound 100 nM): 0.002008 and 0.002532 and 0.002421 | cAMP assay signal, concentration-response point (hCB1 [2]; compound 1000 nM): 0.002545 and 0.002096 and 0.002506 | cAMP assay signal, concentration-response point (hCB1 [2]; compound 10000 nM): 0.001462 and 0.001302 and 0.001515 | cAMP assay signal, concentration-response point (hCB1 [2]; compound 100000 nM): 0.0002057* and 0.0001994* and 0.0002162* | agonism, inhibition of forskolin-stimulated cAMP (hCB1 [2]; hCB1-expressing cells, in words): modest agonism | Barr2+GRK2 hCB1 response (hCB1 [3]; Log [Compound] (M) -4.22186): 27.1048 | Barr2+GRK2 hCB1 response (hCB1 [3]; Log [Compound] (M) -4.63927): -24.5851 | Barr2+GRK2 hCB1 response (hCB1 [3]; Log [Compound] (M) -5.05788): -35.4335 | Barr2+GRK2 hCB1 response (hCB1 [3]; Log [Compound] (M) -5.47381): -53.9398 | Barr2+GRK2 hCB1 response (hCB1 [3]; Log [Compound] (M) -5.89285): -49.1537 | Barr2+GRK2 hCB1 response (hCB1 [3]; Log [Compound] (M) -6.31878): -46.282 | Barr2+GRK2 hCB1 response (hCB1 [3]; Log [Compound] (M) -6.72585): -46.9202 | Barr2+GRK2 hCB1 response (hCB1 [3]; Log [Compound] (M) -7.14267): -54.5779 | Barr2+GRK2 hCB1 response (hCB1 [3]; Log [Compound] (M) -7.55284): -56.4924 | Barr2+GRK2 hCB1 response (hCB1 [3]; Log [Compound] (M) -8): -48.8346 | Barr2+GRK2 hCB1 response (hCB1 [3]; Log [Compound] (M) -8.22186): -5.441 | Barr2+GRK2 hCB1 response (hCB1 [3]; Log [Compound] (M) -8.39794): -31.2856 | Barr2+GRK2 hCB1 response (hCB1 [3]; Log [Compound] (M) -8.68787): -55.2161 | Barr2+GRK2 hCB1 response (hCB1 [3]; Log [Compound] (M) -9.15521): -35.1145 | Barr2+GRK2 hCB1 response (hCB1 [3]; Log [Compound] (M) -9.61989): -47.5583 | Barr2+GRK2 hCB1 response (hCB1 [3]; Log [Compound] (M) -10.0969): -52.0253 | Barr2+GRK2 hCB1 response (hCB1 [3]; Log [Compound] (M) -10.5529): -34.4763 | Barr2+GRK2 hCB1 response (hCB1 [3]; Log [Compound] (M) -11.0177): -42.1341 | Barr2+GRK2 hCB1 response (hCB1 [3]; Log [Compound] (M) -11.4949): -48.5155 | Barr2+GRK2 hCB1 response (hCB1 [3]; Log [Compound] (M) -11.9208): -49.1537 | Barr2+GRK2 hCB1 response (hCB1 [3]; Log [Compound] (M) -12.3979): -55.5351 | Barr2+GRK2 hCB1 response (hCB1 [3]; Log [Compound] (M) -12.8861): -37.0289 | Barr2+GRK2 hCB1 response (hCB1 [3]; Log [Compound] (M) -13.3979): -10.8649 | Gi1 hCB1 (hCB1 [3]; Log [Compound] (M) -4.22186): 20.433 | GoB hCB1 (hCB1 [3]; Log [Compound] (M) -4.22186): 28.3973 | Gi1 hCB1 (hCB1 [3]; Log [Compound] (M) -4.63927): 13.3222 | GoB hCB1 (hCB1 [3]; Log [Compound] (M) -4.63927): 13.6053 | Gi1 hCB1 (hCB1 [3]; Log [Compound] (M) -5.05788): 9.41 | GoB hCB1 (hCB1 [3]; Log [Compound] (M) -5.05788): 19.1089 | Gi1 hCB1 (hCB1 [3]; Log [Compound] (M) -5.47381): 7.763 | GoB hCB1 (hCB1 [3]; Log [Compound] (M) -5.47381): 13.8657 | Gi1 hCB1 (hCB1 [3]; Log [Compound] (M) -5.89285): 5.34 | GoB hCB1 (hCB1 [3]; Log [Compound] (M) -5.89285): 8.258 | Gi1 hCB1 (hCB1 [3]; Log [Compound] (M) -6.31878): 2.791 | GoB hCB1 (hCB1 [3]; Log [Compound] (M) -6.31878): 3.397 | Gi1 hCB1 (hCB1 [3]; Log [Compound] (M) -6.72585): -1.469 | GoB hCB1 (hCB1 [3]; Log [Compound] (M) -6.72585): -0.5617 | Gi1 hCB1 (hCB1 [3]; Log [Compound] (M) -7.14267): -3.893 | GoB hCB1 (hCB1 [3]; Log [Compound] (M) -7.14267): -2.489 | Gi1 hCB1 (hCB1 [3]; Log [Compound] (M) -7.55284): -6.6323 | GoB hCB1 (hCB1 [3]; Log [Compound] (M) -7.55284): -6.586 | Gi1 hCB1 (hCB1 [3]; Log [Compound] (M) -8): -3.861 | GoB hCB1 (hCB1 [3]; Log [Compound] (M) -8): -8.513 | Gi1 hCB1 (hCB1 [3]; Log [Compound] (M) -8.22186): 0.6527 | GoB hCB1 (hCB1 [3]; Log [Compound] (M) -8.22186): -4.433 | Gi1 hCB1 (hCB1 [3]; Log [Compound] (M) -8.39794): -6.221 | GoB hCB1 (hCB1 [3]; Log [Compound] (M) -8.39794): -7.35 | Gi1 hCB1 (hCB1 [3]; Log [Compound] (M) -8.68787): -4.3993 | GoB hCB1 (hCB1 [3]; Log [Compound] (M) -8.68787): -5.892 | Gi1 hCB1 (hCB1 [3]; Log [Compound] (M) -9.15521): -5.159 | GoB hCB1 (hCB1 [3]; Log [Compound] (M) -9.15521): -7.419 | Gi1 hCB1 (hCB1 [3]; Log [Compound] (M) -9.61989): -4.621 | GoB hCB1 (hCB1 [3]; Log [Compound] (M) -9.61989): -5.371 | Gi1 hCB1 (hCB1 [3]; Log [Compound] (M) -10.0969): -6.442 | GoB hCB1 (hCB1 [3]; Log [Compound] (M) -10.0969): -8.097 | GoB hCB1 (hCB1 [3]; Log [Compound] (M) -10.5529): -7.003 | Gi1 hCB1 (hCB1 [3]; Log [Compound] (M) -11.0177): -5.524 | GoB hCB1 (hCB1 [3]; Log [Compound] (M) -11.0177): -9.104 | Gi1 hCB1 (hCB1 [3]; Log [Compound] (M) -11.4949): -5.872 | GoB hCB1 (hCB1 [3]; Log [Compound] (M) -11.4949): -8.479 | Gi1 hCB1 (hCB1 [3]; Log [Compound] (M) -11.9208): -6.363 | GoB hCB1 (hCB1 [3]; Log [Compound] (M) -11.9208): -7.454 | Gi1 hCB1 (hCB1 [3]; Log [Compound] (M) -12.3979): -5.935 | GoB hCB1 (hCB1 [3]; Log [Compound] (M) -12.3979): -8.392 | Gi1 hCB1 (hCB1 [3]; Log [Compound] (M) -12.8861): -4.653 | GoB hCB1 (hCB1 [3]; Log [Compound] (M) -12.8861): -8.739 | Gi1 hCB1 (hCB1 [3]; Log [Compound] (M) -13): -5.191 | GoB hCB1 (hCB1 [3]; Log [Compound] (M) -13): -7.871 | Gi1 hCB1 (hCB1 [3]; Log [Compound] (M) cell empty): -4.795 | GoB hCB1 (hCB1 [3]; Log [Compound] (M) cell empty): -4.173 | pEC50 [95% CI] (hCB1 [3]; hCB1 GoB): 5.6 [3.0 – 6.2] | Emax (hCB1 [3]; read-out: Emax [95% CI], hCB1 Gi1): 49% | Emax (hCB1 [3]; read-out: Emax [95% CI], hCB1 GoB): 36% | radioligand binding remaining, competition curve (Figure2e), replicate values (CB1 (rCB1) [4]; log[drug] -3.643): 3.776 and 13.0342 and 10.5924 | radioligand binding remaining, competition curve (Figure2e), replicate values (CB1 (rCB1) [4]; log[drug] -4.35655): -5.187 and 0.4808 and -3.246 | radioligand binding remaining, competition curve (Figure2e), replicate values (CB1 (rCB1) [4]; log[drug] -5.07): 1.22 and 4.986 and -3.564 | radioligand binding remaining, competition curve (Figure2e), replicate values (CB1 (rCB1) [4]; log[drug] -5.783): 44.8894 and 48.8782 and 38.7216 | radioligand binding remaining, competition curve (Figure2e), replicate values (CB1 (rCB1) [4]; log[drug] -6.496): 82.7231 and 84.8647 and 75.4685 | radioligand binding remaining, competition curve (Figure2e), replicate values (CB1 (rCB1) [4]; log[drug] -7.21): 103.471 and 87.6068 and 85.0402 | radioligand binding remaining, competition curve (Figure2e), replicate values (CB1 (rCB1) [4]; log[drug] -7.923): 98.6842 and 84.2236 and 81.6265 | radioligand binding remaining, competition curve (Figure2e), replicate values (CB1 (rCB1) [4]; log[drug] -8.636): 102.059 and 98.0413 and 100.669 | pKi [95% CI] (CB1 (rCB1) [4]; rCB1): 6.16 [5.99 – 6.34] | AMPC activity (DMSO = 100), replicate means (AmpC β-lactamase): 142.819 and 64.3814 and 173.064
